# Results published in patent publication US20260232666A1, “COMPOSITIONS AND METHODS FOR INHIBITION OF RAS” (TheRas, Inc., priority 2023, published 2026).
# How the values were obtained:
# pERK in NCI-H358 cells = assay: Cell-based pERK HTRF assay (pERK inhibition in H358 cells); details: 30 min incubation
# Method in brief: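 NCI-H358 cells were seeded at 4×10^4 cells/well in RPMI/10% FBS, then treated next day for 30 min at 0.25% DMSO (9-point, 3-fold series from 75 μM). Lysates were read by HTRF (d2/Eu cryptate antibody pair, 615 nm emission) after 4–24 h at room temperature to give pERK IC50.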
# [1] = target: T1, GppNHp-loaded KRAS4b (amino acids 1-169) G12C/C118S protein (Homo sapiens, UniProt P01116, C118S/G12C); assay: Covalent cysteine 12 modification by MALDI-TOF MS, GppNHp-loaded KRAS G12C; assay type: binding; details: 15 minutes reaction time point
# T1 construct: KRAS4b (amino acids 1-169) G12C/C118S protein; made in house
# Method in brief: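 With several adducts, each species' height is expressed as a fraction of all observed protein peaks, scored on linear-mode spectra. Reactions run at pH 7.3 (HEPES, 150 mM NaCl, 1 mM MgCl2), using 1 μM protein and a 1:2.5 protein:compound ratio, and are sampled after 15 minutes in the dark.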
SMILES,"IC50 (pERK in NCI-H358 cells; Homo sapiens, NCI-H358, 0.5 h) [nM]",GppNHp-KRAS G12C percent of modification [1],IC50 (pERK in NCI-H358 cells) [nM]
C=CC(=O)N1CC[C@@H](N(C)c2nc(OC[C@@]34CCCN3C[C@H](F)C4)nc3c(F)c(-c4ccc(F)c5sc(N)c(C#N)c45)c(C(F)(F)F)cc23)[C@H]1CC [Compound 18],< 100,B (50≤percent of modification <70%),–
C=CC(=O)N1CC[C@@H](N(C)c2nc(OC[C@@H]3C[C@@H](F)CN3CC)nc3c(F)c(-c4ccc(F)c5sc(N)c(C#N)c45)c(Cl)cc23)[C@@H]1C [Compound 105],< 100,A (percent of modification ≥70%),–
C=CC(=O)N1C[C@H]2CC[C@@H]1CN2c1nc(OC[C@@]23CCCN2C[C@H](F)C3)nc2c(F)c(-c3ccc(F)c4sc(N)c(C#N)c34)c(C(F)(F)F)cc12 [Compound 36],100 to 1000,D (percent of modification <10%),–
"C=CC(=O)N1CC[C@@H](N(C)c2nc(OC[C@@H]3CCCN3C)nc3c(F)c(-c4ccc(F)c5sc(N)c(C#N)c45)c(C(F)(F)F)cc23)[C@H]1C (atropisomer, axis not shown) [Compound 131]",–,A (percent of modification ≥70%),< 100
C=CC(=O)N1CC[C@@H](N(C)c2nc(OC[C@@H]3C[C@@H](OC)CN3CC)nc3c(F)c(-c4ccc(F)c5sc(N)c(C#N)c45)c(C(F)(F)F)cc23)[C@H]1C [Compound 104],< 100,A (percent of modification ≥70%),–
C=CC(=O)N1CC[C@@H](N(C)c2nc(OC[C@@]34CCCN3C[C@H](F)C4)nc3cc(-c4ccc(F)c5sc(N)c(C#N)c45)c(F)cc23)[C@@H]1CC [Compound 22],< 100,D (percent of modification <10%),–
C=CC(=O)N1CC[C@@H](N(C)c2nc(OC[C@@H]3CCCN3CC)nc3c(F)c(-c4ccc(F)c5sc(N)c(C#N)c45)c(C(F)(F)F)cc23)[C@@H]1C [Compound 30],< 100,A (percent of modification ≥70%),–
C=CC(=O)N1CC[C@@H](N(CC)c2nc(OC[C@@]34CCCN3C[C@H](F)C4)nc3cc(-c4ccc(F)c5sc(N)c(C#N)c45)c(C#N)cc23)[C@H]1C [Compound 25],< 100,A (percent of modification ≥70%),–
C=CC(=O)N1C2CC1CN(c1nc(OC[C@@]34CCCN3C[C@H](F)C4)nc3c(F)c(-c4ccc(F)c5sc(N)c(C#N)c45)c(C(F)(F)F)cc13)C2 [Compound 35],< 100,C (10%≤percent of modification <50%),–
C=CC(=O)N1CC[C@@H](N(CC)c2nc(OC[C@@]34CCCN3C[C@H](OC)C4)nc3c(F)c(-c4ccc(F)c5sc(N)c(C#N)c45)c(Cl)cc23)[C@H]1C [Compound 163],< 100,A (percent of modification ≥70%),–
C=CC(=O)N1CC[C@@H](N(C)c2nc(OC[C@@]34CCCN3C[C@H](F)C4)nc3cc(-c4ccc(F)c5sc(N)c(C#N)c45)c(F)cc23)[C@H]1CC [Compound 29],< 100,A (percent of modification ≥70%),–
C=CC(=O)N1CCC(N(C)c2nc(OC[C@@]34CCCN3C[C@H](F)C4)nc3cc(-c4ccc(F)c5sc(N)c(C#N)c45)c(C#N)cc23)[C@H]1CC (some centres unmarked) [Compound 7],< 100,A (percent of modification ≥70%),–
"C=CC(=O)N1C[C@H](N(C)c2nc(OC[C@@]34CCCN3C[C@H](F)C4)nc3c(F)c(-c4ccc(F)c5sc(N)c(C#N)c45)c(C(F)(F)F)cc23)C[C@H]1C (atropisomer, axis not shown) [Compound 176]",< 100,A (percent of modification ≥70%),–
C=CC(=O)N1CC[C@@H](N(CC)c2nc(OC[C@@H]3C[C@@H](F)CN3C)nc3cc(-c4ccc(F)c5sc(N)c(C#N)c45)c(F)cc23)[C@H]1C [Compound 139],100 to 1000,A (percent of modification ≥70%),–
C=CC(=O)N1CC[C@@H](N(C)c2nc(OC[C@@]34CCCN3C[C@H](F)C4)nc3cc(-c4ccc(F)c5sc(N)c(C#N)c45)c(F)cc23)[C@@H]1C [Compound 31],< 100,A (percent of modification ≥70%),–
"C=CC(=O)N1CC[C@@H](N(CC)c2nc(OC[C@@]34CCCN3C[C@H](F)C4)nc3c(F)c(-c4ccc(F)c5sc(N)c(C#N)c45)ccc23)[C@H]1C [Compound 17, 4-(4-(((2R,3R)-1-acryloyl-2-methylpyrrolidin-3-yl)(ethyl)amino)-8-fluoro-2-(((2R,7aS)-2-fluorotetrahydro-1H-pyrrolizin-7a(5H)-yl)methoxy)quinazolin-7-yl)-2-amino-7-fluorobenzo[b]thiophene-3-carbonitrile]",< 100,A (percent of modification ≥70%),–
C=CC(=O)N1C[C@H](N(C)c2nc(OC[C@@]34CCCN3C[C@H](F)C4)nc3cc(-c4ccc(F)c5sc(N)c(C#N)c45)c(F)cc23)C[C@@H]1C [Compound 109],< 100,C (10%≤percent of modification <50%),–
"C=CC(=O)N1CC[C@@H](N(C)c2nc(OC[C@@H]3CCCN3C)nc3c(F)c(-c4ccc(F)c5sc(N)c(C#N)c45)c(C(F)(F)F)cc23)[C@H]1C (atropisomer, axis not shown) [Compound 132]",–,D (percent of modification <10%),> 1000
C=CC(=O)N1CCC(N(C)c2nc(OC[C@@H]3CCCN3C)nc3c(F)c(-c4nc(N)cc(C)c4C(F)(F)F)c(Cl)cc23)[C@H]1C (some centres unmarked) [Compound 9],100 to 1000,C (10%≤percent of modification <50%),–
C=CC(=O)N1CC[C@@H](N(C)c2nc(OC[C@@]34CCCN3C[C@H](F)C4)nc3cc(-c4ccc(F)c5sc(N)c(C#N)c45)c(C#N)cc23)[C@@H]1CC [Compound 24],< 100,C (10%≤percent of modification <50%),–
C=CC(=O)N1CCC(N(CC)c2nc(OC[C@@]34CCCN3C[C@H](F)C4)nc3c(F)c(-c4ccc(F)c5sc(N)c(C#N)c45)c(C(F)(F)F)cc23)[C@H]1CC (some centres unmarked) [Compound 8],< 100,C (10%≤percent of modification <50%),–
C=CC(=O)N1CC[C@@H](N(CC)c2nc(OC[C@]34CCCN3C[C@H](F)C4)nc3cc(-c4ccc(F)c5sc(N)c(C#N)c45)c(F)cc23)[C@H]1C [Compound 167],< 100,A (percent of modification ≥70%),–
